According to patent US20200239832A1, “TOLERANCE OF MICROBIAL CELLS AGAINST ORTHO-AMINOBENZOATE IN PRESENCE OF ALKALI IONS AT NEUTRAL PH” (priority 2017, published 2020):

Tests used:
Type in all cases: cell-based, Corynebacterium glutamicum
[1] = tested on: C. glutamicum strain derived from ATCC 13032 by evolutionary engineering; assay: Comparison of metabolic activity after NH4-oAB and Na-oAB addition, batch cultivation in 1 L bioreactors (Example 2); details: 40 mL of 500 g/L oAB stock solution at pH 7 added after 7 h and 24 h; FIG. 2
Description: (§1) FIG. 2: Influence of Na-oAB and NH4-oAB addition on oAB resistance during batch cultivation in 1 L scale with C. glutamicum ATCC 13032. Filled symbols: addition of 40 mL of 500 a oAB stock solution (oAB dissolved with NaOH at pH 7) after 7 h and 24 h. Open symbols: addition of 40 mL of 500 g/L oAB stock solution (oAB dissolved with NH4OH at pH 7) after 7 h and 24 h. Both bioreactors: addition of 36 g/L glucose (added as stock solution) after 7.5 h and 24.5 h to prevent a glucose limitation. Initial cultivation volume VL=1 L, temperature 30° C., pH=7 controlled with NH4OH (10 w % NH3), gassing rate with air=0.2 L/min, pO2 controlled at 30% air saturation by adjusting the stirrer speed between 200 and 1200 rpm.
A C. glutamicum strain derived from ATCC 13032 was used to compare the metabolic activity after NH4-oAB and Na-oAB addition during the cultivation. This strain was derived from Corynebacterium glutamicum ATCC 13032 by evolutionary engineering in order to increase its resistance against oAB.
It was not further genetically modified. Thus it was not capable of oAB-production. For this purpose, two 1 L bioreactors were filled with sterile cultivation medium including the following initial concentrations: 20 g/L glucose, 5 g/L (NH4)2SO4, 1 g/L KH2PO4, 1 g/L K2HPO4, 0.25 g/L MgSO4.7 H2O, 0.01 g/L CaCl2.2 H2O, 2 mg/L biotin (vitamin B7), 0.03 g/L protocatechuic acid (3,4-Dihydroxybenzoic acid), 0.01 g/L MnSO4.H2O, 0.01 g/L FeSO4.7H2O, 1 mg/L ZnSO4.7H2O, 0.2 mg/L CuSO4.5H2O and 0.02 mg/L NiCl2.6H2O.
(§2) The preculture medium for the cultivation in shake flasks contained additionally 42 g/L MOPS buffer, 3.7 g/L brain heart infusion broth, 5 g/L urea (CH4N2O) and 20 a (NH4)2SO4 (instead of 5 g/L). The preculture was cultivated in 300 mL shake flasks with a liquid volume of 25 mL at a temperatur of 28° C. and a shaking frequency of 180 rpm until OD600>20 was reached.

C. glutamicum ATCC 13032 = assay: Comparison of metabolic activity after NH4-oAB and Na-oAB addition, batch cultivation in 1 L bioreactors (Example 3); details: for biomass accumulation after oAB addition: 40 mL of 500 g/L oAB stock solution at pH 7 added after 6.4 h and 23.6 h, FIG. 3
Description: as §1, with “FIG. 3:” for “FIG. 2:”, “500 g/L” for “500 a”, “after 6.4” for “after 7”, “and 23.6” for “and 24”, “h.” for “h. Both bioreactors: addition of 36 g/L glucose (added as stock solution) after 7.5 h and 24.5 h to prevent a glucose limitation.”
The influence of NH4 was tested with C. glutamicum ATCC 13032 (without further genetic modifications, not modified by evolutionary engineering) using two 1 L bioreactors filled with sterile cultivation medium including the following initial concentrations: […], 5 g/L (NH4)2SO4, 1 g/L KH2PO4, 1 g/L K2HPO4, 0.25 g/L MgSO4.7 H2O, 0.01 g/L CaCl2.2 H2O, 2 mg/L biotin (vitamin B7), 0.03 g/L protocatechuic acid (3,4-Dihydroxybenzoic acid), 0.01 g/L MnSO4.H2O, 0.01 g/L FeSO4.7H2O, 1 mg/L ZnSO4.7H2O, 0.2 mg/L CuSO4.5H2O and 0.02 mg/L NiCl2.6H2O.
as §2, with “20 g/L” for “20 a”
During the fermentation the temperature was controlled at 30° C. and pH was kept constant at pH=7 by adding aqueous NH4OH solution (10 w % NH3). The gassing rate was adjusted to 0.2 L/min air and the dissolved oxygen tension was controlled at 30% air saturation by adjusting the stirrer speed between 200 rpm and 1200 rpm.
40 mL of a 500 g/L oAB stock solution (oAB dissolved with NaOH at pH 7) was added to reactor 1 after 6.4 h and 23.6 h (filled symbols) and 40 mL of a 500 g/L oAB stock solution (oAB dissolved with NH4OH at pH 7) was added after 6.4 h and 23.6 h to reactor 2 (open symbols)
From this it follows that the toxicity of oAB on C. glutamicum ATCC 13032 in presence of high Na+ concentrations is reduced compared to the toxicity in presence of high NH4^+ concentrations.

[2] = tested on: modified C. glutamicum production strain; assay: Evaluation of the maximum tolerable oAB concentration, batch cultivation in 1 L bioreactor
Description: FIG. 1: Evaluation of the maximum tolerable oAB concentration during batch cultivation in a 1 L lab-scale bioreactor with a modified C. glutamicum production strain. Addition of 20 mL of a 500 g/L oAB stock solution (oAB dissolved with NaOH at pH 7) after 23 h and 39 h, 48 h (two times), 64 h (two times) and 71 h (two times) and addition of glucose solution after 40 h, 48 h, 63 h, 65 and 71.5 h to prevent a glucose limitation. Initial cultivation volume VL=1 L, temperature 30° C., pH=7 controlled by adding NH4OH (10 w % NH3) during cultivation, gassing rate with air=0.2 L/min, pO2 controlled at 30% air saturation by adjusting the stirrer speed between 200 and 1200 rpm.
The maximum tolerable oAB concentration in the presence of sodium ions in the medium was tested with a modified C. glutamicum production strain. This strain was derived from Corynebacterium glutamicum ATCC 13032 by evolutionary engineering in order to increase its resistance against oAB.
This strain was then genetically modified to make it capable of oAB-production. […]

[3] = according to FIG. 3, NH4+ as counter ion

N.Nc1ccccc1C(=O)O [NH4-oAB]
OTR signal after oAB addition [1]: constant OTR signal | biomass concentration after oAB addition [1]: reduced biomass accumulation | biomass accumulation after oAB addition (C. glutamicum ATCC 13032): growth inhibition after 24 h | o-aminobenzoate concentration above which the metabolic activity of bacterial cells (OTR) is limited (C. glutamicum ATCC 13032; [3]): more than 25 g/L | o-aminobenzoate concentration at which cell growth (dry weight) stops (C. glutamicum ATCC 13032; [3]): > 50 g/L

Nc1ccccc1C(=O)[O-].[Na+] [Na-oAB]
OTR signal after oAB addition [1]: continued to increase | biomass concentration after oAB addition [1]: continued to increase | biomass accumulation after oAB addition (C. glutamicum ATCC 13032): biomass accumulation continued

Nc1ccccc1C(=O)O [oAB, 2-aminobenzoic acid]
oAB concentration at which growth (increase in biomass concentration) was still observed ([2]; oAB added stepwise as sodium salt (dissolved with NaOH at pH 7), pH 7 controlled with NH4OH, 30° C.): 80 g/L | oAB concentration resulting in a decrease of the metabolic activity (declining OTR signal) and no further increase in biomass ([2]; oAB increased from 80 g/L to 100 g/L after 71 h, added as sodium salt, pH 7, 30° C.): 100 g/L
